Some test systems named below: NCI-H23 lung; NCI-H522 lung; OVCAR-5 ovarian; SK-MEL-5 melanoma; SF-539 CNS; CCRF-CEM leukemia; CAKI-1 renal; HCT-15 colon; U251 CNS; SNB-75 CNS.
Assay in all cases: NCI tumour cell line growth inhibition, 48 h

“And” between values parts separate entries of the source, which are not always exact repeats. Identical values can stand only once.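 In this assay, cells in 96-well plates receive the compound at five concentrations for 48 hours. Endpoints are linearly interpolated between the surrounding concentrations. GI50: concentration for 50% inhibition of growth. Definition used: TGI = concentration required for complete inhibition of growth.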

As to `CC(=O)OCC1OC(NC(=S)N/N=C2\CC(c3ccccc3)Oc3ccccc32)C(OC(C)=O)C(OC(C)=O)C1OC(C)=O` (stereo unspecified), the TGI with NCI-H23 lung, in the experiment on NCI-H522 lung, with OVCAR-5 ovarian, in the experiment on SK-MEL-5 melanoma, with SF-539 CNS and in the experiment with CCRF-CEM leukemia was over 100 µM in each case. The TGI with CAKI-1 renal, with HCT-15 colon, in the experiment with U251 CNS and in the experiment on SNB-75 CNS was over 100 µM in each case.
Take `CC1CN1C(=O)NCCCCCCNC(=O)N1CC1C` (stereo unspecified): the TGI was over 100 µM in the experiment on NCI-H23 lung; over 100 µM with NCI-H522 lung; over 100 µM with OVCAR-5 ovarian; over 100 µM with SK-MEL-5 melanoma; 98.2 µM in the experiment with SF-539 CNS; over 93 µM with CCRF-CEM leukemia. In addition, the TGI with CAKI-1 renal, in the experiment on HCT-15 colon, in the experiment on U251 CNS and in the experiment on SNB-75 CNS was over 100 µM in each case.
Consider `CC1OC(OC2C(OC(=O)[C@]34CCC(C)(C)CC3C3=CCC5[C@@]6(C)C[C@H](O)[C@H](OC7OC(CO)C(O)C(O)C7N)[C@@](C)(C(=O)O)C6CC[C@@]5(C)C3(C)CC4)OCC(O)C2O)C(O)C(O)C1OC1OCC(O)C(O)C1O` (stereo partly specified), for which the TGI in the experiment with NCI-H23 lung, in the experiment with NCI-H522 lung, in the experiment with OVCAR-5 ovarian, in the experiment with SK-MEL-5 melanoma, with SF-539 CNS and in the experiment with CCRF-CEM leukemia was over 100 µM each time. In addition, the TGI with CAKI-1 renal, in the experiment with HCT-15 colon, in the experiment on U251 CNS and in the experiment on SNB-75 CNS was over 100 µM in each case.
For the compound `COc1ccc2c(c1)CCCN2c1c2ccccc2nc2ccccc12`, the GI50 in the experiment with NCI-H23 lung is 0.356 µM; in the experiment on NCI-H522 lung, 0.384 µM; in the experiment with OVCAR-5 ovarian, 0.544 µM; in the experiment on SK-MEL-5 melanoma, 0.35 µM; in the experiment with SF-539 CNS it was 0.251 µM; with CCRF-CEM leukemia, 0.353 µM. For the same compound, the GI50 with CAKI-1 renal is 0.383 µM; in the experiment on HCT-15 colon, 0.314 µM; in the experiment with U251 CNS, 0.379 µM; with SNB-75 CNS it was 0.2 µM. Also, the TGI was 5.48 µM in the experiment with NCI-H23 lung; 16.2 µM in the experiment on NCI-H522 lung; over 100 µM with OVCAR-5 ovarian; 1.66 µM in the experiment with SK-MEL-5 melanoma; 0.741 µM in the experiment on SF-539 CNS; 71.6 µM in the experiment with CCRF-CEM leukemia. The TGI with CAKI-1 renal was over 100 µM; in the experiment with HCT-15 colon, 25.6 µM; in the experiment with U251 CNS it was over 100 µM; with SNB-75 CNS, 0.821 µM.
In the case of `Nc1c(-c2ccc(Cl)cc2)[n+]([O-])c2ccccc2[n+]1[O-]`, the TGI is over 100 µM in the experiment on NCI-H23 lung; 85.6 µM with NCI-H522 lung; over 100 µM in the experiment with OVCAR-5 ovarian; over 100 µM in the experiment with SK-MEL-5 melanoma; over 100 µM in the experiment on SF-539 CNS; over 100 µM with CCRF-CEM leukemia. The TGI in the experiment with CAKI-1 renal, with HCT-15 colon, in the experiment with U251 CNS and in the experiment on SNB-75 CNS was over 100 µM in each case.
`CC(=O)O[C@H]1C(=O)[C@@]2(C)C(C(OC(=O)c3ccccc3)[C@]3(O)CC(OC(=O)[C@H](OC(=O)CCC(=O)O)C(NC(=O)c4ccccc4)c4ccccc4)C(C)=C1C3(C)C)C1(OC(C)=O)COC1C[C@@H]2O` (stereo partly specified): the TGI in the experiment on NCI-H23 lung is over 100 µM; with NCI-H522 lung, under 0.01 µM; with OVCAR-5 ovarian it was over 36.1 µM; with SK-MEL-5 melanoma, 13.9 µM and 18 µM; in the experiment with SF-539 CNS, < 0.0196 µM and 0.0584 µM; with CCRF-CEM leukemia, 0.658 µM and 1.57 µM. Also, the TGI in the experiment on CAKI-1 renal, in the experiment with HCT-15 colon and in the experiment on U251 CNS was over 100 µM throughout. Besides, the GI50 with OVCAR-5 ovarian is < 0.0146 µM and 0.0324 µM; in the experiment on SNB-75 CNS, 0.022 µM and 0.076 µM.
As to `O=C1Nc2ccccc2C1(c1ccc(O)cc1)c1ccc(O)cc1`, the GI50 in the experiment with NCI-H23 lung was 1.23 µM; with NCI-H522 lung it was 17.2 µM; in the experiment on OVCAR-5 ovarian, 25.6 µM; with SK-MEL-5 melanoma it was 14.7 µM; in the experiment on SF-539 CNS, 18.5 µM; in the experiment on CCRF-CEM leukemia, 32.7 µM. Moreover, the GI50 in the experiment with CAKI-1 renal was 22.7 µM; in the experiment with HCT-15 colon, 19.2 µM; in the experiment on U251 CNS, 24.2 µM; in the experiment with SNB-75 CNS it was 12.7 µM. The TGI in the experiment with NCI-H23 lung was 37.8 µM; in the experiment with NCI-H522 lung it was 43.4 µM; with OVCAR-5 ovarian, 81.5 µM; in the experiment on SK-MEL-5 melanoma, 29.3 µM; in the experiment on SF-539 CNS it was 40.2 µM; with CCRF-CEM leukemia, 99.8 µM. The TGI in the experiment on CAKI-1 renal is 81.3 µM; in the experiment with HCT-15 colon, over 100 µM; in the experiment on U251 CNS, 63.5 µM; with SNB-75 CNS, 38 µM.
Take `COc1cc2ncn(-c3cc(OCc4cccs4)c(C(N)=O)s3)c2cc1OC`: the GI50 is 1.24 µM in the experiment on NCI-H23 lung; 0.924 µM in the experiment on NCI-H522 lung; 2.55 µM with OVCAR-5 ovarian; 1.94 µM in the experiment with SK-MEL-5 melanoma; 1.23 µM with SF-539 CNS; 0.806 µM in the experiment with CCRF-CEM leukemia. The GI50 in the experiment on CAKI-1 renal is 8.49 µM; with HCT-15 colon, 1.64 µM; in the experiment with U251 CNS, 1.48 µM; in the experiment with SNB-75 CNS, 5.72 µM. In addition, the TGI was over 25 µM in the experiment with NCI-H23 lung; over 12.5 µM in the experiment on NCI-H522 lung; over 25 µM in the experiment on OVCAR-5 ovarian; over 25 µM with SK-MEL-5 melanoma; over 16.8 µM with SF-539 CNS; over 25 µM in the experiment with CCRF-CEM leukemia. Further, the TGI in the experiment on CAKI-1 renal is over 25 µM; in the experiment with HCT-15 colon it was over 25 µM; in the experiment with U251 CNS, over 25 µM; with SNB-75 CNS it was over 22.4 µM.
For `CCN(CC)C(c1ccc(N(C)C)cc1)C(c1ccc(N(C)C)cc1)N(CC)CC` (stereo unspecified), the TGI is over 73 µM with NCI-H23 lung; over 7.3 µM in the experiment with NCI-H522 lung; over 73 µM with OVCAR-5 ovarian; over 73 µM in the experiment with SK-MEL-5 melanoma; over 73 µM with SF-539 CNS; over 73 µM with CCRF-CEM leukemia. Besides, the TGI in the experiment with CAKI-1 renal, in the experiment on HCT-15 colon, in the experiment on U251 CNS and with SNB-75 CNS was over 73 µM in each case.
`C/C(O)=C(\N=O)C(=O)Nc1ccc(Cl)cc1Cl`: the TGI in the experiment on NCI-H23 lung, in the experiment with NCI-H522 lung, with OVCAR-5 ovarian, in the experiment with SK-MEL-5 melanoma, in the experiment with SF-539 CNS and with CCRF-CEM leukemia was over 100 µM throughout. Besides, the TGI in the experiment on CAKI-1 renal, in the experiment on HCT-15 colon, in the experiment with U251 CNS and with SNB-75 CNS was over 100 µM throughout.

For the origin of these results see PubChem BioAssay (NCI).
